Assay results taken from patent publication US10792300B2, “Dendritic cell immune receptor activator, method for activating dendritic cell immune receptor, osteoclast formation inhibitor, method for inhibiting osteoclast formation, dendritic cell differentiation/proliferation inhibitor, method for inhibiting dendritic cell differentiation/proliferation, …” (TOKYO UNIVERSITY OF SCIENCE FOUNDATION, priority 2014, dated 2020).

T1: DCIR-Fc (Mus musculus, UniProt Q9QZ15)
T1 construct: covering the extracellular domain (EC) from 70 to 238 at the amino acid level; made in house; host or cells: HEK293T cells
T1 sequence (Q9QZ15 70-238): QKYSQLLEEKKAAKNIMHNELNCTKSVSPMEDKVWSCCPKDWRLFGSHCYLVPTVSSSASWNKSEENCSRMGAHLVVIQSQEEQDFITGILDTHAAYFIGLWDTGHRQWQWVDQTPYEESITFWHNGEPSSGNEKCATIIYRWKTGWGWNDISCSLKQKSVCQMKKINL


Tests used:
DCIR-Fc [1] = biological target: T1, DCIR-Fc; assay: Glycan microarray with evanescent-field fluorescence-assisted detection: binding of DCIR-Fc to glycan probes; parameters: species or system murine; details: glycan microarray, DCIR-Fc
Text: (§1) Murine DCIR cDNA, covering the extracellular domain (EC) from 70 to 238 at the amino acid level, was subcloned into pFUSE-hIgG2-Fc2 vector (Invitrogen) at Bgl II site. cDNA coding the extracellular domain was generated with a primer set; sense 5′-[…]-3′ (sequence No. 11) and anti-sense 5′-[…]-3′ (sequence No. 12). Site-directed mutations of the CRD domain, in which glutamic acid and serine were replaced to alanine, were established by KOD-Plus-Mutagenesis Kit (TOYOBO). The following primer set was used for the mutagenesis: E197A sense 5′-[…]-3′(sequence No. 13), anti-sense 5′-[…]-3′(sequence No. 14); S199A sense 5′-[…]-3′(sequence No. 15), anti-sense 5′-[…]-3′ (sequence No. 16); E197A/S199A sense 5′-[…]-3′ (sequence No. 17), anti-sense 5′-[…]-3′(sequence No. 18).
(§2) The plasmids were transferred into HEK293T cells by Lipofectamine LTX (Invitrogen), and the cells were incubated in Opti-MEM (Invitrogen) for 15 days and the medium was changed every 3 days. The Fc-chimeric proteins were purified from collected supernatant by affinity chromatography on Protein A-Sepharose (GE Healthcare UK)
(§3) The glycan-protein interaction was detected in a glycan microarray with an evanescent-field fluorescence-assisted detection system. Briefly, glycan probes, including glycoproteins and glycoside-polyacrylamide (PAA), were immobilized on microarray-grade epoxy-activated glass slides (Schott AG) in triplicate spots using a noncontact microarray printing robot, MicroSys 4000 (Genomic Solutions). The glass slides were incubated at 25° C. for 3 hours and washed with a reaction buffer consisting of 25 mM Tris HCl (pH 7.4) containing 0.8% NaCl, 1% (v/v) Triton-X, 1 mM MnCl2, and 1 mM CaCl2 to remove […], followed by blocking in TBS (25 mM Tris-HCl (pH 7.4) with 0.8% NaCl and 1% BSA) at 20° C. for 1 hour. A protein complex of DCIR-Fc, mutant DCIR-Fc, or Fc with Cy3-labelled anti-human Fc antibodies was formed in a reaction buffer at RT by 20 minutes kept in the dark.
(§4) The protein complex was applied to a glass slide at 100 μl per chamber, and was incubated at 20° C. for 3 hours. Without washing, the binding was detected with an evanescent-field activated fluorescence scanner, SC-Profiler (GP Bioscience), and the data was analyzed by the Array Pro analyzer Ver. 4.5 (Media Cybernetics, Inc.) Subtracted raw intensity from background intensity is net intensity, which is presented as the average±s.d. of triplicate spots.

DCIR-Fc [2] = assay: as above; parameters: species or system murine; details: for Ca2+ and CRD dependency of DCIR-Fc binding: with or without EDTA, CRD mutants; for binding of mutant DCIR-Fc (CRD mutants) to the glycan: glycan microarray
Text: as §1, §2, §3, §4

wild-type BMMs [3] = assay: Osteoclast formation by TRAP staining, wild-type BMMs with M-CSF and RANKL; assay type: cell-based, mouse
Experimental: To form M-CSF-dependent bone marrow-derived macrophages, BM cells were isolated by flushing the bone marrow cavity of femurs with α-minimal essential medium (α-MEM) (Gibco, trade name, Life Technologies), supplemented with penicillin (100 units/ml), streptomycin (100 μg/ml) and 10% heat-inactivated fetal bovine serum. Red blood cells were destroyed in a hemolysis buffer (consisting of 140 mM NH4Cl and 17 mM Tris-HCl, pH 7.2) for 10 minutes on ice, and the treated cells were pre-incubated in a 100 mm dish for 1 hour. The non-adherent cells (hematopoietic cells) were harvested and seeded at 50,000 cells per well in 96-well plates in the presence of 20 ng/ml of recombinant human M-CSF (R&D Systems) for 2 days. The cells proliferated in response to M-CSF were defined as BMMs. […]
Adherent cells were fixed in 10% formalin for 3 minutes, followed by further fixation in a fixative buffer consisting of 50% ethanol and 50% acetone for 1 minute. […] TRAP-positive cells with more than 3 or 10 nuclei were counted as multinucleated osteoclasts.
Wild-type and Dcir−/− BMMs were induced to differentiate osteoclasts in the presence of M-CSF and RANKL. […] The number of osteoclasts was determined by TRAP staining. […] Cell lysates were analyzed by western blotting to detect the phosphorylation levels of signal components. […]

wild-type BMMs [4] = assay: Western blotting of M-CSF- and RANKL-mediated signals, wild-type BMMs; assay type: cell-based, mouse; details: wild-type BMMs pre-treated with NA2
Experimental: (§5) For western blotting of M-CSF- and RANKL-mediated signals, BMMs were re-plated in a 12-well plate at 250,000 cells per well in the presence of 5 ng/ml of M-CSF. 24 hours after the culture, the BMMs were left in a serum-free medium without M-CSF for 6 hours before stimulation. The cells were activated with 20 ng/ml of M-CSF or 100 ng/ml of RANKL for predetermined periods. […]
(§6) Wild-type and Dcir−/− BMMs were induced to differentiate osteoclasts in the presence of M-CSF and RANKL. […] The number of osteoclasts was determined by TRAP staining. […] Cell lysates were analyzed by western blotting to detect the phosphorylation levels of signal components.

Dcir−/− BMMs = assay: Western blotting of M-CSF- and RANKL-mediated signals, Dcir−/− BMMs; assay type: cell-based, mouse; details: FIG. 49: Dcir−/− BMMs pre-treated with NA2 1 μg/ml for 6 hours
Experimental: as §5, §6

[5] = tested on: Flt3L-induced dendritic cells (DCs); assay: Pro-inflammatory cytokine production by LPS-activated Flt3L-induced dendritic cells (ELISA); assay type: cell-based, mouse; details: 1 μg/ml NA2, 24 hours, versus without NA2
Experimental: Flt3L-induced dendritic cells (DCs) were prepared by the following process. Bone marrow cells were isolated from femurs of wild-type mice. Red blood cells were destroyed in a hemolysis buffer (consisting of 140 mM NH4Cl and 17 mM Tris-HCl, pH 7.2) for 10 minutes on ice. The cells were seeded at 1 million cells per well in 24-well plates in the presence of 100 ng/ml of recombinant human Flt3L in a medium containing 10% FBS, antibiotic mixtures, essential amino acids and 2-mercaptoethanol. At day 4, 100 ng/ml of recombinant human Flt3L (Milteny) was added in each well and further cultured for additional 4 days. At day 8, the cells were harvested and re-seeded at 500,000 cells per well in 96-well plates.
The DCs thus obtained were activated with agonistic reagents (LPS) with or without 1 μg/ml of a NA2 for 24 hours. The supernatants were collected and the amounts of pro-inflammatory cytokines (IL-6 and p40) were determined by ELISA. As a result, the amount of pro-inflammatory cytokines were smaller when the DCs were stimulated by LPS in the presence of a NA2 than without the same (FIG. 50). In FIG. 50, the left-side two bars represent the amounts of pro-inflammatory cytokines without LPS stimulation, and the right-side two bars represent the amounts of pro-inflammatory cytokines with LPS stimulation, where the black bars represent the cases in the presence of a NA2.

[6] = tested on: primary murine osteoblasts; assay: Effect of IFN-γ on osteoblast formation (alizarin red staining, osteogenic gene expression); assay type: cell-based; details: exogenous addition, dose-dependent
Experimental: Calvarial cells were prepared by sequential digestion followed by a standard method. Briefly, calvavria from 1 to 2-day old neonates were surgically isolated and adherent mesenchymal tissues were trimmed. The neonatal calvaria underwent a first digestion with a degrading solution containing 0.1% collagenase (Wako Pure Chemical Industries) and 0.1% dispase (Roche Diagnostics Japan) for 10 minutes at 37° C. with agitation. The solution was discarded to remove debris, and the remaining calvaria were further digested by the same degrading solution for 1 hour at 37° C. The cells isolated from the serial digestions were suspended in an a-MEM containing 10% FCS, penicillin (100 units/ml) and streptomycin (100 μg/ml), and plated at the concentration of 200,000 cells/well in 12-well plates. Two days after the culture, the cells were incubated in an osteogenic medium (α-MEM supplemented with 10% FBS, 50 μg/ml ascorbic acid (Sigma-Aldrich), 10 mM β-glycerophosphate (Calbiochem) and antibiotics) for 14 days or 21 days, with the medium replaced every 3 days for the entire duration.
Murine osteoblasts were cultured and differentiated according to the protocol as mentioned above. […]
The mineralization formation of osteoblastic cells was detected by the von Kossa method and staining with alizarin red S (sodium alizarin sulphonate). […]

Row | binding of DCIR-Fc to the glycan (DCIR-Fc [1]) | Ca2+ and CRD dependency of DCIR-Fc binding (DCIR-Fc [2]) | binding of mutant DCIR-Fc (CRD mutants) to the glycan (DCIR-Fc [2]) | Molecule | osteoclast formation in wild-type BMMs (wild-type BMMs [3]) | Akt phosphorylation in response to M-CSF and RANKL (wild-type BMMs [4]) | MAPKs and IκBα upon M-CSF and RANKL stimuli (Dcir−/− BMMs) | amount of pro-inflammatory cytokine IL-6 [5] | amount of pro-inflammatory cytokine p40 [5] | alizarin red staining (ability of osteoblasts to mineralize) [6] | expression of osteogenic genes ([6]; day 14 culture)
1 | bound strongly | Ca^2+ and CRD were required | – | asialo-biantennary N-glycan [NA2] | significant decrease | decrease | no effect | smaller | smaller | – | –
2 | bound | Ca^2+-dependent | no binding | asialo-transferrin: glycoprotein probe on the glycan microarray; transferrin without sialic acid | – | – | – | – | – | – | –
3 | bound | Ca^2+-dependent | remained bound | heparin | – | – | – | – | – | – | –
4 | – | – | – | IFN-γ: recombinant murine IFN-γ (PeproTech) (protein, UniProt P01580 23-155, looked up) Interferon gamma: HGTVIESLESLNNYFNSSGIDVEEKSLFLDIWRNWQKDGDMKILQSQIISFYLRLFEVLKDNQAISNNISVIESHLITTFFSNSKAKKDAFMSIAKFEVNNPQVQRQAFNELIRVVHQLLPESSLRKRKRSRC | – | – | – | – | – | augmented | augmented
